Marks after values point to notes of the source that are not given here. Starred links: 1 amine or outer side, 2 acyl side, 3 side chain; linkers in the order of their positions; H or OH if unused. Non-standard residues stand in square brackets, D forms with d. Residues, ends and D or L forms follow the SMILES beside them. Groups on a side chain read outwards from the residue. *: point of attachment. X1 = CCCCCCCCCCCCCCCC(=O)N[C@@H](CCC(=O)N[C@@H](CCC(=O)N[C@@H](CCC(=O)NCCCOCCOCCOCCCNC(=O)CCC(=O)NCCCOCCOCCOCCCNC(=O)CCC(=O)NCCCOCCOCCOCCCN*)C(=O)O)C(=O)O)C(=O)O; X2 = CCCCCCCCCCCCCCCC(=O)N[C@@H](CCC(=O)N[C@@H](CCC(=O)N[C@@H](CCC(=O)NCCCOCCOCCOCCCNC(=O)CCC(=O)NCCCOCCOCCOCCCN*)C(=O)O)C(=O)O)C(=O)O; Suc = O=C(CCC(=O)[*:2])[*:1]; αMeK = C[C@](N)(CCCCN)C(=O)O; Aib = CC(C)(N)C(=O)O
Columns and labels:
Stability in human blood = format: in vitro ADME; settings: for Human blood stability % remaining: T = 0, 37° C., 5 μM; for remaining at 1 h, 5 μM / remaining at 4 h, 5 μM: human, whole blood (sodium or lithium heparin), 37° C.
Experimental: (§1) Prior to the testing of stability in plasma (or blood) of a peptide batch, its purity (HPLC-UV) was determined.
Rat and Human blood: anti-coagulant sodium or lithium heparin.
(§2) 100 μM solution of study compound in 50 mM phosphate buffer pH 7.4.
(§3) 950 μL plasma (or blood) was pre-incubated for 5 min at 37° C. 50 μL of compound stock solution was added. Final compound concentration=5 μM. Vortex and transfer 150 μL plasma (or blood) into an Eppendorf for each time point. The time points […] were carried out in duplicate for each species.
(§4) After incubation, 150 μL plasma (or blood) was extracted with 600 μL Acetonitrile containing 1% TFA. Said mixture was then vortexed and centrifuged 10 min at 14600 rpm. 200 μL supernatant was dried under N2. Sample was then reconstituted in 200 μL of H2O/CH3CN 98/2+0.1% FA+50 ng/ml Labetalol and analyzed using the analytical system used in solubility and stability studies.
(§5) For determination of the amount of the remaining peptide, the peak areas of the target compound at t0 and each time point […] were compared, resulting in “% remaining peptide”, following the equation: % remaining peptide=[(peak area peptide time)×100]/peak area peptide t0. The stability was expressed as “% remaining peptide”.

RXFP1 = biological target: T1, RXFP1 (Homo sapiens, UniProt Q9HBX9); test: OVCAR5 cAMP assay (HTRF); format: cell-based; settings: for EC50: OVCAR 5 cells expressing endogenous RXFP1, cAMP readout; for Emax: OVCAR 5 cells, maximal cAMP relative to H2-relaxin
T1 construct: OVCAR5 cells expressing endogenous RXFP1; endogenous in cells; host or cells: OVCAR5
T1 sequence (Q9HBX9 1-757): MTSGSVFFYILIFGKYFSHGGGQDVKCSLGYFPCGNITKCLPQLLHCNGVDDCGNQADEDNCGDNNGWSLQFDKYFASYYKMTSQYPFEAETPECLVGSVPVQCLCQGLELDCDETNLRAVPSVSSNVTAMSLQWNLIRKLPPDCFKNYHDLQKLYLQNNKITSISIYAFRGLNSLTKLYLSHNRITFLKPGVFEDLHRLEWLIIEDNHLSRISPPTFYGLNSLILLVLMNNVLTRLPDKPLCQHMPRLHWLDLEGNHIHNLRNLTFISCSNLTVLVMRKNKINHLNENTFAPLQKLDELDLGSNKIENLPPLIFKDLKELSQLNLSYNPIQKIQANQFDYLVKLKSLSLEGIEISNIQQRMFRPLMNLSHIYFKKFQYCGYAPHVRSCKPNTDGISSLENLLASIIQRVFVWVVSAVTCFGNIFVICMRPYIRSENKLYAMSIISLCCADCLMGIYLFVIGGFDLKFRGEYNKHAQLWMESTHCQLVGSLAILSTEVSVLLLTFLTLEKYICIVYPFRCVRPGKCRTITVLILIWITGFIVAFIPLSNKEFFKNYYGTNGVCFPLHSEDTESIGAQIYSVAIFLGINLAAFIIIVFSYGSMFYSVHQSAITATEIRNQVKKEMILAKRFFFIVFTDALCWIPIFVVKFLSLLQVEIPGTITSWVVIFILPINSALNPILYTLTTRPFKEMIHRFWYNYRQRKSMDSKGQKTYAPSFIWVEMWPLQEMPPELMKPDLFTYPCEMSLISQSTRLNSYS
How it was run: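 Peptide agonism measured as intracellular cAMP (HTRF) after 30 min at 37° C in serum-free medium, following 40 min 1 mM IBMX preincubation of OVCAR5 cells. Nonlinear regression gave EC50; Emax % = 100 × compound maximal cAMP / H2-relaxin maximal cAMP.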

Stability in rat plasma = format: in vitro ADME; settings: for Rat plasma stability % remaining: T = 0, 37° C., 5 μM; for remaining at 1 h, 5 μM / remaining at 4 h, 5 μM: rat, plasma (sodium or lithium heparin), 37° C.
Experimental: as §1
Rat and Human plasma: anti-coagulant sodium or lithium heparin.
as §2, §3, §4, §5

Human blood stability % remaining (Stability in human blood)	remaining at 1 h, 5 μM (Stability in human blood) [%]	remaining at 4 h, 5 μM (Stability in human blood) [%]	EC50 (RXFP1) [nM]	Emax (RXFP1) [%]	Rat plasma stability % remaining (Stability in rat plasma) [%]	remaining at 1 h, 5 μM (Stability in rat plasma) [%]	remaining at 4 h, 5 μM (Stability in rat plasma) [%]	Compound
100* %	95	95	0.34	97	98	100	87	CCCCCCCCCCCCCCCC(=O)N[C@@H](CCC(=O)N[C@@H](CCC(=O)N[C@@H](CCC(=O)NCCCOCCOCCOCCCNC(=O)CCC(=O)NCCCOCCOCCOCCCNC(=O)CCC(=O)NCCCOCCOCCOCCCNC(=O)CCC(=O)NCCCC[C@H](NC(=O)CNC(=O)[C@H](CCC(=O)O)NC(=O)C(C)(C)NC(=O)C(C)(C)NC(=O)[C@@H](NC(=O)[C@H](CCCCNC(C)=O)NC(=O)[C@H](C)NC(=O)[C@H](CCCNC(=N)N)NC(=O)[C@@H](NC(=O)[C@H](CCCCN)NC(=O)[C@H](CCC(=O)O)NC(=O)[C@H](CCCNC(=N)N)NC(=O)CNC(=O)[C@H](CCC(=O)O)NC(=O)[C@H](CC(C)C)NC(C)=O)C(C)C)[C@@H](C)CC)C(=O)N[C@@H](CO)C(=O)N[C@H](C(=O)N[C@@H](Cc1ccccc1)C(=O)N[C@@H](CO)C(=O)N[C@@](C)(CCCCN)C(=O)N[C@@H](CCCNC(=N)N)C(=O)N[C@@H](C)C(=O)N[C@@H](CCCCNC(C)=O)C(N)=O)[C@@H](C)O)C(=O)O)C(=O)O)C(=O)O [compound 3] (Ac-LEGREKVRAK(Ac)I[Aib][Aib]EGK([Suc-X1])STFS[αMeK]RAK(Ac)-NH2)
100* %	100	99	1.5	89	100	100	59	CCCCCCCCCCCCCCCC(=O)N[C@@H](CCC(=O)N[C@@H](CCC(=O)N[C@@H](CCC(=O)NCCCOCCOCCOCCCNC(=O)CCC(=O)NCCCOCCOCCOCCCNC(=O)CCC(=O)NCCCC[C@H](NC(=O)CNC(=O)[C@H](CCC(=O)O)NC(=O)C(C)(C)NC(=O)C(C)(C)NC(=O)[C@@H](NC(=O)[C@H](CCCCNC(C)=O)NC(=O)[C@H](C)NC(=O)[C@H](CCCNC(=N)N)NC(=O)[C@@H](NC(=O)[C@H](CCCCN)NC(=O)[C@H](CCC(=O)O)NC(=O)[C@H](CCCNC(=N)N)NC(=O)CNC(=O)[C@H](CCC(=O)O)NC(=O)[C@H](CC(C)C)NC(C)=O)C(C)C)[C@@H](C)CC)C(=O)N[C@@H](CO)C(=O)N[C@H](C(=O)N[C@@H](Cc1c[nH]c2ccccc12)C(=O)N[C@@H](CO)C(=O)NC(C)(C)C(=O)N[C@@H](CCCNC(=N)N)C(=O)N[C@@H](CCCCN)C(=O)N[C@@H](CCCCNC(C)=O)C(N)=O)[C@@H](C)O)C(=O)O)C(=O)O)C(=O)O [compound 4] (Ac-LEGREKVRAK(Ac)I[Aib][Aib]EGK([Suc-X2])STWS[Aib]RKK(Ac)-NH2)

— patent US11725036B2, “Modified lipidated relaxin B chain peptides and their therapeutic use” (Sanofi, priority 2018, dated 2023)
